Data as given in paper PMC9501633, “Synthesis, Characterisation and Mechanism of Action of Anticancer 3-Fluoroazetidin-2-ones” (Pharmaceuticals, 2022).

Key:
Format in all cases: cell-based, human
COLO 205 = experiment: NCI 60 cell line screen, Colon
SNB-19 = experiment: NCI 60 cell line screen, CNS
HCT-116 = experiment: NCI 60 cell line screen, Colon
HCT-15 = experiment: NCI 60 cell line screen, Colon
K-562 = experiment: NCI 60 cell line screen, Leukaemia
NCI-H522 = experiment: NCI 60 cell line screen, NSCLung
LOX IMVI = experiment: NCI 60 cell line screen, Melanoma
A498 = experiment: NCI 60 cell line screen, Renal
A549/A TCC = experiment: NCI 60 cell line screen, NSCLung
NCI-H23 = experiment: NCI 60 cell line screen, NSCLung
OVCAR-3 = experiment: NCI 60 cell line screen, Ovarian
OVCAR-8 = experiment: NCI 60 cell line screen, Ovarian
NCI/ADR-RES = experiment: NCI 60 cell line screen, Ovarian
IGROV1 = experiment: NCI 60 cell line screen, Ovarian
M14 = experiment: NCI 60 cell line screen, Melanoma; conditions: for GI50: 5-dose, 48 h
786–0 = experiment: NCI 60 cell line screen, Renal
MDA-MB-435 = experiment: NCI 60 cell line screen, Melanoma
HS 578T = experiment: NCI 60 cell line screen, Breast
CCRF-CEM = experiment: NCI 60 cell line screen, Leukaemia
UACC-257 = experiment: NCI 60 cell line screen, Melanoma
UACC-62 = experiment: NCI 60 cell line screen, Melanoma
SNB-75 = experiment: NCI 60 cell line screen, CNS
MDA-MB-468 = experiment: NCI 60 cell line screen, Breast
EKVX = experiment: NCI 60 cell line screen, NSCLung
KM12 = experiment: NCI 60 cell line screen, Colon
PC-3 = experiment: NCI 60 cell line screen, Prostate
MCF7 = experiment: NCI 60 cell line screen, Breast
HL-60(TB) = experiment: NCI 60 cell line screen, Leukaemia
MDA-MB-231/ATCC = experiment: NCI 60 cell line screen, Breast
MOLT-4 = experiment: NCI 60 cell line screen, Leukaemia

SMILES: COc1ccc(C2C(F)C(=O)N2c2cc(OC)c(OC)c(OC)c2)cc1F (centres unmarked) [Compound 33, 3-Fluoro-4-(3-fluoro-4-methoxyphenyl)-1-(3,4,5-trimethoxyphenyl)azetidin-2-one]
- TGI (COLO 205; 5-dose, 48 h): 503 nM
- GI50 (COLO 205; Homo sapiens, 5-dose, 48 h): 156 nM
- CC50 (COLO 205; Homo sapiens, 5-dose, 48 h, read-out: LC50 (the source's name)): 8230 nM
- inhibition at 10 µM (COLO 205; Homo sapiens, one dose 10 µM): 168%
- Growth % (COLO 205; one dose 10 µM): -68%
- TGI (SNB-19; 5-dose, 48 h): >100000 nM
- GI50 (SNB-19; Homo sapiens, 5-dose, 48 h): 302 nM
- inhibition at 10 µM (SNB-19; Homo sapiens, one dose 10 µM): 66%
- Growth % (SNB-19; one dose 10 µM): 34.05%
- TGI (HCT-116; 5-dose, 48 h): >100000 nM
- GI50 (HCT-116; Homo sapiens, 5-dose, 48 h): 32.5 nM
- inhibition at 10 µM (HCT-116; Homo sapiens, one dose 10 µM): 94.4%
- Growth % (HCT-116; one dose 10 µM): 5.59%
- TGI (HCT-15; 5-dose, 48 h): >100000 nM
- GI50 (HCT-15; Homo sapiens, 5-dose, 48 h): 66.4 nM
- inhibition at 10 µM (HCT-15; Homo sapiens, one dose 10 µM): 86.4%
- Growth % (HCT-15; one dose 10 µM): 13.63%
- GI50 (K-562; 5-dose, 48 h): 38.3 nM
- TGI (K-562; 5-dose, 48 h): >100000 nM
- GI50 (K-562; Homo sapiens, K562, 48 h, 5-dose, 48 h): 38 nM
- inhibition at 10 µM (K-562; Homo sapiens, K562, one dose 10 µM): 90.5%
- Growth % (K-562; one dose 10 µM): 9.45%
- GI50 (NCI-H522; 5-dose, 48 h): 38.3 nM
- TGI (NCI-H522; 5-dose, 48 h): >100000 nM
- GI50 (NCI-H522; Homo sapiens, NCI-H522, 48 h, 5-dose, 48 h): 38 nM
- inhibition at 10 µM (NCI-H522; Homo sapiens, one dose 10 µM): 108%
- Growth % (NCI-H522; one dose 10 µM): -8.46%
- TGI (LOX IMVI; 5-dose, 48 h): >100000 nM
- GI50 (LOX IMVI; Homo sapiens, 5-dose, 48 h): 90.4 nM
- inhibition at 10 µM (LOX IMVI; Homo sapiens, one dose 10 µM): 76%
- Growth % (LOX IMVI; one dose 10 µM): 23.98%
- TGI (A498; 5-dose, 48 h): 8080 nM
- GI50 (A498; Homo sapiens, 5-dose, 48 h): 847 nM
- inhibition at 10 µM (A498; Homo sapiens, one dose 10 µM): 106%
- Growth % (A498; one dose 10 µM): -5.5%
- TGI (A549/A TCC; 5-dose, 48 h): >100000 nM
- GI50 (A549/A TCC; Homo sapiens, 5-dose, 48 h): 394 nM
- inhibition at 10 µM (A549/A TCC; Homo sapiens, one dose 10 µM): 84.7%
- Growth % (A549/A TCC; one dose 10 µM): 15.33%
- TGI (NCI-H23; 5-dose, 48 h): >100000 nM
- GI50 (NCI-H23; Homo sapiens, 5-dose, 48 h): 273 nM
- inhibition at 10 µM (NCI-H23; Homo sapiens, one dose 10 µM): 78.7%
- Growth % (NCI-H23; one dose 10 µM): 21.3%
- TGI (OVCAR-3; 5-dose, 48 h): 492 nM
- GI50 (OVCAR-3; Homo sapiens, 5-dose, 48 h): 46.5 nM
- inhibition at 10 µM (OVCAR-3; Homo sapiens, one dose 10 µM): 104%
- Growth % (OVCAR-3; one dose 10 µM): -4.18%
- TGI (OVCAR-8; 5-dose, 48 h): >100000 nM
- GI50 (OVCAR-8; Homo sapiens, 5-dose, 48 h): 368 nM
- inhibition at 10 µM (OVCAR-8; Homo sapiens, one dose 10 µM): 86.3%
- Growth % (OVCAR-8; one dose 10 µM): 13.71%
- GI50 (NCI/ADR-RES; 5-dose, 48 h): 42.4 nM
- TGI (NCI/ADR-RES; 5-dose, 48 h): >100000 nM
- GI50 (NCI/ADR-RES; Homo sapiens, 48 h, 5-dose): 42 nM
- inhibition at 10 µM (NCI/ADR-RES; Homo sapiens, one dose 10 µM): 91.6%
- Growth % (NCI/ADR-RES; one dose 10 µM): 8.4%
- TGI (IGROV1; 5-dose, 48 h): >100000 nM
- GI50 (IGROV1; Homo sapiens, IGROV-1, 5-dose, 48 h): 94.6 nM
- inhibition at 10 µM (IGROV1; Homo sapiens, IGROV-1, one dose 10 µM): 68.1%
- Growth % (IGROV1; one dose 10 µM): 31.88%
- GI50 (M14): 25.4 nM
- GI50 (M14; Homo sapiens, M14, 48 h): 25 nM
- inhibition at 10 µM (M14; Homo sapiens, one dose 10 µM): 98.1%
- Growth % (M14; one dose 10 µM): 1.91%
- Growth % (786–0; 786-0, one dose 10 µM): 22.92%
- TGI (786–0; 786–0, 5-dose, 48 h): 15100 nM
- inhibition at 10 µM (786–0; Homo sapiens, 786-0, one dose 10 µM): 77.1%
- GI50 (786–0; Homo sapiens, 786–0, 5-dose, 48 h): 46.2 nM
- GI50 (MDA-MB-435; Homo sapiens, 5-dose, 48 h): 29.1 nM
- inhibition at 10 µM (MDA-MB-435; Homo sapiens, one dose 10 µM): 99.7%
- Growth % (MDA-MB-435; one dose 10 µM): 0.35%
- TGI (HS 578T; 5-dose, 48 h): >100000 nM
- GI50 (HS 578T; Homo sapiens, 5-dose, 48 h): 295 nM
- inhibition at 10 µM (HS 578T; Homo sapiens, one dose 10 µM): 74.5%
- Growth % (HS 578T; one dose 10 µM): 25.54%
- TGI (CCRF-CEM; 5-dose, 48 h): >100000 nM
- GI50 (CCRF-CEM; Homo sapiens, 5-dose, 48 h): 47.1 nM
- inhibition at 10 µM (CCRF-CEM; Homo sapiens, one dose 10 µM): 86.8%
- Growth % (CCRF-CEM; one dose 10 µM): 13.16%
- TGI (UACC-257; 5-dose, 48 h): >100000 nM
- GI50 (UACC-257; Homo sapiens, 5-dose, 48 h): > 100000 nM
- inhibition at 10 µM (UACC-257; Homo sapiens, one dose 10 µM): 61.3%
- Growth % (UACC-257; one dose 10 µM): 38.74%
- TGI (UACC-62; 5-dose, 48 h): >100000 nM
- inhibition at 10 µM (UACC-62; Homo sapiens, one dose 10 µM): 46.5%
- Growth % (UACC-62; one dose 10 µM): 53.45%
- TGI (SNB-75; 5-dose, 48 h): >100000 nM
- GI50 (SNB-75; Homo sapiens, 5-dose, 48 h): > 100000 nM
- inhibition at 10 µM (SNB-75; Homo sapiens, one dose 10 µM): 49.1%
- Growth % (SNB-75; one dose 10 µM): 50.89%
- GI50 (MDA-MB-468; Homo sapiens, 5-dose, 48 h): 106 nM
- inhibition at 10 µM (MDA-MB-468; Homo sapiens, one dose 10 µM): 77%
- Growth % (MDA-MB-468; one dose 10 µM): 23%
- TGI (EKVX; 5-dose, 48 h): >100000 nM
- GI50 (EKVX; Homo sapiens, 5-dose, 48 h): 203 nM
- inhibition at 10 µM (EKVX; Homo sapiens, one dose 10 µM): 27.8%
- Growth % (EKVX; one dose 10 µM): 72.16%
- TGI (KM12; 5-dose, 48 h): >100000 nM
- GI50 (KM12; Homo sapiens, 5-dose, 48 h): 59.6 nM
- inhibition at 10 µM (KM12; Homo sapiens, one dose 10 µM): 89.3%
- Growth % (KM12; one dose 10 µM): 10.73%
- TGI (PC-3; 5-dose, 48 h): >100000 nM
- GI50 (PC-3; Homo sapiens, 5-dose, 48 h): 42 nM
- inhibition at 10 µM (PC-3; Homo sapiens, one dose 10 µM): 76.9%
- Growth % (PC-3; one dose 10 µM): 23.13%
- inhibition at 10 µM (MCF7; Homo sapiens, MCF7, MCF7, one dose 10 µM): 87.2%
- GI50 (MCF7; Homo sapiens, MCF7, 5-dose, 48 h): 36.4 nM
- TGI (MCF7; MCF7, 5-dose, 48 h): >100000 nM
- Growth % (MCF7; MCF7, one dose 10 µM): 12.83%
- Inhibition % (MCF7; MCF7, one dose 10 µM): 87.2%
- TGI (HL-60(TB); 5-dose, 48 h): 399 nM
- GI50 (HL-60(TB); Homo sapiens, 5-dose, 48 h): 80.5 nM
- inhibition at 10 µM (HL-60(TB); Homo sapiens, one dose 10 µM): 115%
- Growth % (HL-60(TB); one dose 10 µM): -14.69%
- TGI (MDA-MB-231/ATCC; 5-dose, 48 h): >100000 nM
- GI50 (MDA-MB-231/ATCC; Homo sapiens, 5-dose, 48 h): 355 nM
- inhibition at 10 µM (MDA-MB-231/ATCC; Homo sapiens, one dose 10 µM): 80.3%
- Growth % (MDA-MB-231/ATCC; one dose 10 µM): 19.65%
- TGI (MOLT-4; 5-dose, 48 h): 93400 nM
- GI50 (MOLT-4; Homo sapiens, 5-dose, 48 h): 146 nM
- inhibition at 10 µM (MOLT-4; Homo sapiens, one dose 10 µM): 80.3%
- Growth % (MOLT-4; one dose 10 µM): 19.7%
